Molecular target: T1, NS5B from the BK strain (genotype 1b) (Hepatitis C virus genotype 1b, UniProt P26663)
T1 construct: NS5B from the BK strain (genotype 1b) is expressed in E. coli as a protein in which the 21 C-terminal amino acids are replaced; made in house; host or cells: E. coli
Test: Hepatitis C polymerase inhibition, NS5B BK strain, 33P-GTP filter assay
Format: biochemical
Conditions: Table 1A; for inhibition at 20 µM: 20 μM compound, read-out: HCV pol % inh at 20 μM; for IC50: NS5B BK strain, read-out: HCV pol BK IC50
How it was run: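 E. coli-expressed NS5B (BK, genotype 1b) with the 21 C-terminal residues replaced by a linker-His6 tag was preincubated with compound for 15 min at room temperature. It then extended a hairpin-primed heteropolymeric RNA (~3 nM, ~760 nt product) with α-[33P]-GTP for 2 h at 22–25° C. The reaction was stopped with EDTA, and incorporated label was counted on filters.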

T1 sequence (P26663 2420-2989): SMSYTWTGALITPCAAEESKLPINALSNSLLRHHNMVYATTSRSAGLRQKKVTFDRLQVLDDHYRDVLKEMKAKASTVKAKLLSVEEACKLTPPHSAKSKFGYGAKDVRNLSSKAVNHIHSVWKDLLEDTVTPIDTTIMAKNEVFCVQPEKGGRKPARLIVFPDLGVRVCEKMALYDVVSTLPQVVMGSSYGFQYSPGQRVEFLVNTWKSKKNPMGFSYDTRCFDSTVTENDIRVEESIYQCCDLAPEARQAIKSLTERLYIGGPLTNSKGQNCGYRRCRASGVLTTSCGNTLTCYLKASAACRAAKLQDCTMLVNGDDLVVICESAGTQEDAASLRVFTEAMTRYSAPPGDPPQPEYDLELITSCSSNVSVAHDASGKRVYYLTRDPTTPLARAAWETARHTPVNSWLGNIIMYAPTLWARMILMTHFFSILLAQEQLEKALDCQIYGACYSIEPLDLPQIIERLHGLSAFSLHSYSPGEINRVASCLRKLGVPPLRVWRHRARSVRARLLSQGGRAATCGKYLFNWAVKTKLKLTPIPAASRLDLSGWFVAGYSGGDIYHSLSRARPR

`Cc1cc(Cl)c2[nH]c3c(c2c1C#N)CCOC3(CC(=O)O)C(C)C` (stereo not shown) [Example 184, (8-chloro-5-cyano-1-isopropyl-6-methyl-1,3,4,9-tetrahydropyrano[3,4-b]indol-1-yl)acetic acid] was tested. Which inhibition at 20 µM did it give?
Its inhibition at 20 µM is 39%.

What about the IC50 of the same compound?
Its IC50 is greater than 5 µM.

`CCCCC1(CC(=O)O)OCCc2c1[nH]c1c(Cl)cc(C)c(C#N)c21` (stereo not shown) [Example 185, (1-butyl-8-chloro-5-cyano-6-methyl-1,3,4,9-tetrahydropyrano[3,4-b]indol-1-yl)acetic acid] was tested. Which inhibition at 20 µM did it give?
The inhibition at 20 µM was 69%.

What about the IC50 of the same compound?
Its IC50 is 4 µM.

For `C/C=C/CCC1(CC(=O)O)OCCc2c1[nH]c1c(Cl)cc(C)c(C#N)c21` (stereo not shown) [Example 186, {8-chloro-5-cyano-6-methyl-1-[(3E)-pent-3-enyl]-1,3,4,9-tetrahydropyrano[3,4-b]indol-1-yl}acetic acid], which inhibition at 20 µM is on record?
The inhibition at 20 µM was 2%.

What about the IC50 of the same compound?
The IC50 was greater than 5 µM.

Which inhibition at 20 µM does the source give for `Cc1cc(Cl)c2[nH]c3c(c2c1C#N)CCOC3(CC(=O)O)c1ccccc1` (stereo not shown) [Example 187, (8-chloro-5-cyano-6-methyl-1-phenyl-1,3,4,9-tetrahydropyrano[3,4-b]indol-1-yl)acetic acid] here?
Its inhibition at 20 µM is 61%.

And the IC50?
The IC50 was greater than 5 µM.

For `Cc1cc(Cl)c2[nH]c3c(c2c1C#N)CCOC3(CC(=O)O)c1ccc(C(=O)O)cc1` (stereo not shown) [Example 188, 4-[1-(carboxymethyl)-8-chloro-5-cyano-6-methyl-1,3,4,9-tetrahydropyrano[3,4-b]indol-1-yl]benzoic acid], which inhibition at 20 µM is on record?
The inhibition at 20 µM was 76%.

What about the IC50 of the same compound?
Its IC50 is greater than 5 µM.

With `CCC1(CC(=O)O)OCCc2c1[nH]c1c(F)cc(F)c(Br)c21` (stereo not shown) [Example 189, (5-bromo-1-ethyl-6,8-difluoro-1,3,4,9-tetrahydropyrano[3,4-b]indol-1-yl)acetic acid] as the compound, how does the inhibition at 20 µM read?
The inhibition at 20 µM was 74%.

What about the IC50 of the same compound?
The IC50 was 4.2 µM.

For `CCCC1(CC(=O)O)OCCc2c1[nH]c1c(F)cc(F)c(Br)c21` (stereo not shown) [Example 190, (5-bromo-6,8-difluoro-1-propyl-1,3,4,9-tetrahydropyrano[3,4-b]indol-1-yl)acetic acid], which inhibition at 20 µM is on record?
Its inhibition at 20 µM is 94%.

What about the IC50 of the same compound?
Its IC50 is 0.2 µM.

How did the inhibition at 20 µM turn out when `CCCCC1(CC(=O)O)OCCc2c1[nH]c1c(F)cc(F)c(Br)c21` (stereo not shown) [Example 191, (5-bromo-1-butyl-6,8-difluoro-1,3,4,9-tetrahydropyrano[3,4-b]indol-1-yl)acetic acid] was run?
Its inhibition at 20 µM is 93%.

And the IC50?
The IC50 was 0.4 µM.

Which results are given for `O=C(O)CC1(c2ccoc2)OCCc2c1[nH]c1c(F)cc(F)c(Br)c21` (stereo not shown) [Example 192, [5-bromo-6,8-difluoro-1-(3-furyl)-1,3,4,9-tetrahydropyrano[3,4-b]indol-1-yl]acetic acid]?
inhibition at 20 µM: 74%; IC50: > 5 µM

For `CC(C)C1(CC(=O)O)OCCc2c1[nH]c1c(F)cc(F)c(Br)c21` (stereo not shown) [Example 193, (5-bromo-6,8-difluoro-1-isopropyl-1,3,4,9-tetrahydropyrano[3,4-b]indol-1-yl)acetic acid], which inhibition at 20 µM is on record?
The inhibition at 20 µM was 69%.

What about the IC50 of the same compound?
Its IC50 is 4.5 µM.

`CCC1(CC(=O)O)OCCc2c1[nH]c1c(F)cc(F)c(C#N)c21` (stereo not shown) [Example 194, (5-cyano-1-ethyl-6,8-difluoro-1,3,4,9-tetrahydropyrano[3,4-b]indol-1-yl)acetic acid] was tested. Which inhibition at 20 µM did it give?
The inhibition at 20 µM was 50%.

What about the IC50 of the same compound?
The IC50 was greater than 5 µM.

What does the source list for `CCCC1(CC(=O)O)OCCc2c1[nH]c1c(F)cc(F)c(C#N)c21` (stereo not shown) [Example 195, (5-cyano-6,8-difluoro-1-propyl-1,3,4,9-tetrahydropyrano[3,4-b]indol-1-yl)acetic acid]?
inhibition at 20 µM: 90%; IC50: 0.27 µM

What does the source list for `CCCCC1(CC(=O)O)OCCc2c1[nH]c1c(F)cc(F)c(C#N)c21` (stereo not shown) [Example 196, (1-butyl-5-cyano-6,8-difluoro-1,3,4,9-tetrahydropyrano[3,4-b]indol-1-yl)acetic acid]?
inhibition at 20 µM: 77%; IC50: 1.2 µM

With `N#Cc1c(F)cc(F)c2[nH]c3c(c12)CCOC3(CC(=O)O)c1ccoc1` (stereo not shown) [Example 197, [5-cyano-6,8-difluoro-1-(3-furyl)-1,3,4,9-tetrahydropyrano[3,4-b]indol-1-yl]acetic acid] as the compound, how does the inhibition at 20 µM read?
Its inhibition at 20 µM is 55%.

And the IC50?
The IC50 was greater than 5 µM.

— patent publication US7217730B2, “Method for the use of pyranoindole derivatives to treat infection with Hepatitis C virus” (Wyeth, priority 2002, dated 2007)
